For 20 compounds, IC50 results are on record in patent US12252490B2, “Inhibiting deubiquitinase USP25 and USP28” (Valo Health, Inc., priority 2018, dated 2025).

This test deals with T1, USP28 (His-tagged USP28-FL-mammalian) (Homo sapiens, UniProt Q96RU2).
T1 construct: Expression of USP28 (1-1077)-TEV-6*His (pTT5 vector) was carried out in Expi293f cells; made in house; host or cells: Expi293f cells (pTT5 vector)
T1 sequence (Q96RU2 1-1077): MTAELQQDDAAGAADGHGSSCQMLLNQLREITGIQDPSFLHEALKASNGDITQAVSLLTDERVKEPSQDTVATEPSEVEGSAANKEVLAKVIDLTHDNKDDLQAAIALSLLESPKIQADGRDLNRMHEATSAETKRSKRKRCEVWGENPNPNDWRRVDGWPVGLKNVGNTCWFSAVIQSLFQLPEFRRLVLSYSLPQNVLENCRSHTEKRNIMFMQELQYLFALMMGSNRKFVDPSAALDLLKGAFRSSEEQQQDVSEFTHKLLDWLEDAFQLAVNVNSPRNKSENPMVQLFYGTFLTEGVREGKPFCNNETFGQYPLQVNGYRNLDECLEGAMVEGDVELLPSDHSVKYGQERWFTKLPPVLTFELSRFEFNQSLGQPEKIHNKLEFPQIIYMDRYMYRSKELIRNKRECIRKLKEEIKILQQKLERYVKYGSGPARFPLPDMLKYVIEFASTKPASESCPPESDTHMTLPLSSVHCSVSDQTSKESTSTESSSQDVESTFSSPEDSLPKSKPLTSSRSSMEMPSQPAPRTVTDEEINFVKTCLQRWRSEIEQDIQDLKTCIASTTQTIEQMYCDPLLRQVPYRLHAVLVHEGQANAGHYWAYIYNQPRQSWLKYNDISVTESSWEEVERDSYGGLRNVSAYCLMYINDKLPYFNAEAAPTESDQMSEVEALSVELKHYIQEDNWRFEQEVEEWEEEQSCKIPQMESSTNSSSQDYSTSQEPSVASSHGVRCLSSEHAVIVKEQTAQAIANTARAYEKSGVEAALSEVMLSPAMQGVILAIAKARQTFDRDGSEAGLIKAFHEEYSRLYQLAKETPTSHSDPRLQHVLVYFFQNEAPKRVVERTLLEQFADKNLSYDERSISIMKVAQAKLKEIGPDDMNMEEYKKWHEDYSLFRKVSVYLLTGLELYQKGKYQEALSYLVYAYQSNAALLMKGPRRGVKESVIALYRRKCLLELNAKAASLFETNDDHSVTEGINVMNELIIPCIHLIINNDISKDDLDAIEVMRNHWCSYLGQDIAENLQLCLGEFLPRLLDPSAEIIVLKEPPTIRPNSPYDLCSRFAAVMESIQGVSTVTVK
Put plainly: Ubiquitin-Rhodamine 110 Assay for USP28 Activity, Example A-1(a). The class given is biochemical. Conditions: USP28, 75 pM enzyme, 25 nM Ub-Rh110, 1536-well, 30 min preincubation; read-out: Assay A-1(a) (IC50 range). On the procedure: The assay was performed in a final volume of 9 μL in assay buffer containing 20 mM Tris-HCl (pH 8.0, (1M Tris-HCl, pH 8.0 solution; Corning 46-031-CM)), 3 mM BME (2-Mercaptoethanol; Sigma 63689-25ML-F), 0.03% BGG (0.22 μM filtered, Sigma, G7516-25G), and 0.01% Triton X-100 (Sigma, T9284-10L). Nanoliter quantities of 10-point, 3-fold serial dilution in DMSO was pre-dispensed into 1536 assay plates (Corning, #3724BC) for a final test concentration of 25 μM to 1.3 nM, top to lowest dose, respectively. Enzyme USP28, construct His-tagged USP28-FL-mammalian, (protein expression and purification procedure described below). Concentration and incubation times were optimized for the maximal signal-to-background while maintaining initial velocity conditions at a fixed substrate concentration. The final concentration of the enzyme in the assay was 75 pM. Final substrate (Ub-Rh110; Ubiquitin-Rhodamine 110, UbiQ-126) concentration was 25 nM with [Ub-Rh110]<<Km. 3 μL of 2× enzyme was added to assay plates (pre-stamped with compound) preincubated with […] for 30 minutes and then 3 μL of 2×Ub-Rh110 was added to assay plates. Plates were incubated for 45 minutes at room temperature before addition of 3 μL of stop solution (final concentration of 10 mM citric acid (Sigma, 251275-500G)). Fluorescence was read on the Envision (Excitation at 485 nm and Emission at 535 nm; Perkin Elmer) or on the PheraSTAR (Excitation at 485 nm and Emission at 535 nm; BMG Labtech).
Expression of USP28 (1-1077)-TEV-6*His (pTT5 vector) was carried out in Expi293f cells (sequence derived from uniprot ID: Q96RU2-1). Cells were re-suspended in lysis buffer B 50 mM Bicine, pH 8.0, 20 mM NaCl, 5% glycerol, 0.1% CHAPS, 5 mM β-ME, 1 mM PMSF, 1 μg/ml Leupeptin, 1 μg/ml Pepstatin) and lysed by sonication. Insoluble material was removed by centrifugation and the supernatant was loaded onto a Ni-NTA column (GE Healthcare) equilibrated with Ni Buffer A (50 mM Bicine, pH 8.0, 20 mM NaCl, 5% glycerol, 0.1% CHAPS, 5 mM β-ME.) and washed with Ni Buffer A+20 mM imidazole until A280 reached baseline. The protein was eluted with Ni Buffer B (50 mM Bicine, pH 8.0, 20 mM NaCl, 5% glycerol, 0.1% CHAPS, 5 mM β-ME, 300 mM imidazole.). The protein was further purified using a Superdex™ 200 10/300 GL column (GE Healthcare) equilibrated with 50 mM Bicine, pH 8.0, 20 mM NaCl, 5% glycerol, 0.1% CHAPS, 5 mM β-ME. The protein was concentrated to 2.5 mg ml^−1, flash-frozen in liquid N2 and stored at −80° C.
For assay formats Examples A-1a, A-1b, and A-2, data were reported as percent inhibition compared with control wells based on the following equation: % inh=1−((FLU−AveLow)/(AveHigh−AveLow)) where FLU=measured Fluorescence, AveLow=average Fluorescence of no enzyme control (n=16), and AveHigh=average Fluorescence of DMSO control (n=16). IC50 values were determined by curve fitting of the standard 4 parameter logistic fitting algorithm included in the Activity Base software package: IDBS XE Designer Model205. Data is fitted using the Levenburg Marquardt algorithm.

In the case of `CCn1ccc2cc(C(=O)NC[C@@H](C)c3cc(F)c(N4CCNCC4)cc3F)cnc21` (single isomer, unassigned) [Example 2-1], the IC50 fell in the range of 50 to 200 nM.

As to `CCn1ccc2cc(C(=O)NC[C@H](C)c3cc(F)c(N4CCNCC4)cc3F)cnc21` (single isomer, unassigned) [Example 2-2], the IC50 lay in the range of 200 to 2000 nM.

As for `CCn1ccc2cc(C(=O)NC[C@H](C)c3cc(F)c(N4CC5CCC(C4)N5)cc3F)cnc21` (single isomer, unassigned) [Example 2-3], the IC50 is 1 to 50 nM.

Take `CCn1ccc2cc(C(=O)NC[C@@H](C)c3cc(F)c(N4CC5CCC(C4)N5)cc3F)cnc21` (single isomer, unassigned) [Example 2-4]: the IC50 was in the range of 50 to 200 nM.

For `CCn1ccc2cc(C(=O)NC[C@H](C)c3cc(F)c(N4CC5CCC(C4)N5)cc3F)nnc21` (single isomer, unassigned) [Example 4-2], the IC50 was 50 to 200 nM.

For the compound `CCn1ccc2cc(C(=O)NC[C@@H](C)c3cc(F)c(N4CC5CCC(C4)N5)cc3F)nnc21` (single isomer, unassigned) [Example 4-3], the IC50 lay in the range of 50 to 200 nM.

As for `CCn1ccc2cc(C(=O)NCCc3cc(F)c(N4CC5CCC(C4)N5)cc3F)cnc21` [Example 1-1, N-[2-(4-[3,8-diazabicyclo[3.2.1]octan-3-yl]-2,5-difluorophenyl)ethyl]-1-ethyl-1H-pyrrolo[2,3-b]pyridine-5-carboxamide], the IC50 is 1 to 50 nM.

For the compound `O=C(NCCc1ccc(N2CCNCC2)cc1)c1cnc2[nH]ccc2c1` [Example 1-2, N-(4-(piperazin-1-yl)phenethyl)-1H-pyrrolo[2,3-b]pyridine-5-carboxamide], the concentration for half-maximal inhibition (IC50) lay in the range of 200 to 2000 nM.

For `Cn1ccc2cc(C(=O)NCCc3ccc(N4CCNCC4)cc3)cnc21` [Example 1-3, 1-methyl-N-(4-(piperazin-1-yl)phenethyl)-1H-pyrrolo[2,3-b]pyridine-5-carboxamide], the IC50 is 200 to 2000 nM.

Take `CCn1ccc2cc(C(=O)NCCc3ccc(N4CCNCC4)cc3)cnc21` [Example 1-4, 1-ethyl-N-(4-(piperazin-1-yl)phenethyl)-1H-pyrrolo[2,3-b]pyridine-5-carboxamide]: the concentration for half-maximal inhibition (IC50) is 1 to 50 nM.

As to `Nc1c(C(=O)NCCc2ccc(N3CCNCC3)cc2)cnc2[nH]ccc12` [Example 1-5, 4-amino-N-(4-(piperazin-1-yl)phenethyl)-1H-pyrrolo[2,3-b]pyridine-5-carboxamide], the IC50 fell in the range of 200 to 2000 nM.

Take `CCn1ccc2cc(C(=O)NCCc3ccc(N4CC5CCC(C4)N5)cc3)cnc21` [Example 1-6, N-(4-(3,8-diazabicyclo[3.2.1]octan-3-yl)phenethyl)-1-ethyl-1H-pyrrolo[2,3-b]pyridine-5-carboxamide]: the IC50 lay in the range of 1 to 50 nM.

Turning to `CCn1ccc2cc(C(=O)NCCc3cc(F)c(N4CCNCC4)cc3F)cnc21` [Example 1-7, N-(2,5-difluoro-4-(piperazin-1-yl)phenethyl)-1-ethyl-1H-pyrrolo[2,3-b]pyridine-5-carboxamide], the IC50 lay in the range of 1 to 50 nM.

In the case of `O=C(NCCc1ccc(N2CCNCC2)cc1)c1cnc2c(ccn2CC(F)(F)F)c1` [Example 1-8], the IC50 was 1 to 50 nM.

Turning to `CC(C)(O)Cn1ccc2cc(C(=O)NCCc3cc(F)c(N4CC5CCC(C4)N5)cc3F)cnc21` [Example 1-9, N-(4-(3,8-diazabicyclo[3.2.1]octan-3-yl)-2,5-difluorophenethyl)-1-(2-hydroxy-2-methylpropyl)-1H-pyrrolo[2,3-b]pyridine-5-carboxamide], the IC50 was 2000 to 10000 nM.

On to `CCn1ccc2cc(C(=O)NCCc3ccc(N4CC5CCC(C4)N5)c(F)c3)cnc21` [Example 1-10, N-(4-(3,8-diazabicyclo[3.2.1]octan-3-yl)-3-fluorophenethyl)-1-ethyl-1H-pyrrolo[2,3-b]pyridine-5-carboxamide], for which the IC50 was in the range of 1 to 50 nM.

Take `CCn1cc(Cl)c2cc(C(=O)NCCc3ccc(N4CCNCC4)cc3)cnc21` [Example 3-1, 3-Chloro-1-ethyl-N-[2-[4-(piperazin-1-yl)phenyl]ethyl]-1H-pyrrolo[2,3-b]pyridine-5-carboxamide]: the concentration for half-maximal inhibition (IC50) lay in the range of 1 to 50 nM.

Consider `O=C(NCCc1ccc(N2CCNCC2)cc1)c1cnc2[nH]cc(Cl)c2c1` [Example 3-2, 3-chloro-N-(4-(piperazin-1-yl)phenethyl)-1H-pyrrolo[2,3-b]pyridine-5-carboxamide], for which the IC50 is 200 to 2000 nM.

For `CCn1ccc2cc(C(=O)NCCc3cc(F)c(N4CC5CCC(C4)N5)cc3F)nnc21` [Example 4-1, N-[2-(4-[3,8-diazabicyclo[3.2.1]octan-3-yl]-2,5-difluorophenyl)ethyl]-7-ethyl-7H-pyrrolo[2,3-c]pyridazine-3-carboxamide], the IC50 lay within 1 to 50 nM.

Turning to `CCn1cc(Cl)c2cc(C(=O)NCCc3cc(F)c(N4CC5CCC(C4)N5)cc3F)nnc21` [Example 4-4, N-(4-(3,8-diazabicyclo[3.2.1]octan-3-yl)-2,5-difluorophenethyl)-5-chloro-7-ethyl-7H-pyrrolo[2,3-c]pyridazine-3-carboxamide], the IC50 was 1 to 50 nM.
